Source: US8772280B2, “N-aryl-2-(2-arylaminopyrimidin-4-yl)pyrrol-4-carboxamide derivatives as MPS1 kinase inhibitors” (Nerviano Medical Sciences S.R.L., priority 2009, dated 2014)

These compounds were tested against MPS1 (Homo sapiens, UniProt P33981) (assay: biochemical).
Protocol: Amplification was performed using the forward oligonucleotide:
The inhibitory activity of putative kinase inhibitors and the potency of selected compounds were determined using a trans-phosphorylation assay.
Three cycles of mixing are done immediately after the addition of the resin.

MPS1, sequence (P33981 2-857): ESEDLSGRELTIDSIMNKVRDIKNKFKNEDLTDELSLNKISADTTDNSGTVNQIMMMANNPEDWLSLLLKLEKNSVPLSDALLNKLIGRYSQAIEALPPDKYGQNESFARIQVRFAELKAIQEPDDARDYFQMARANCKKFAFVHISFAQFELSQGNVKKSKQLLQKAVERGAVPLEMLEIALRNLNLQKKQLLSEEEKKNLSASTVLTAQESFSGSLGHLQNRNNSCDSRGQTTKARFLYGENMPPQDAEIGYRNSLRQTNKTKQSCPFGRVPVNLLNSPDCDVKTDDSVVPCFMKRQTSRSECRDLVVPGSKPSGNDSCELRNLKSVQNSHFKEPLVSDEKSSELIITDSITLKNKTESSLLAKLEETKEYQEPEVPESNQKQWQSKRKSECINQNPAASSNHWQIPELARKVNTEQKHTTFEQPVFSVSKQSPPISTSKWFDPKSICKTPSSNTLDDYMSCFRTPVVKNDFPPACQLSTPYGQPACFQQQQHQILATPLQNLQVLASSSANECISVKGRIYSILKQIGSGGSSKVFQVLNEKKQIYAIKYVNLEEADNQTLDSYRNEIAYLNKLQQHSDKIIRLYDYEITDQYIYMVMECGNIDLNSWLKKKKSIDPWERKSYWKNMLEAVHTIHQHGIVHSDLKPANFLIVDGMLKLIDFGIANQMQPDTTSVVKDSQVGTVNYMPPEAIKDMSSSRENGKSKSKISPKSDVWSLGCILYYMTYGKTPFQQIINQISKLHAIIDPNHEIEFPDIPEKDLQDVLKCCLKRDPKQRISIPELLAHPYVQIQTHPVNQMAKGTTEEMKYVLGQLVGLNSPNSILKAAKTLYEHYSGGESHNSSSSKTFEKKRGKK

Compound | IC50
CCc1cccc(CC)c1NC(=O)c1cc(-c2nc(Nc3ccc(C(N)=O)cc3C)ncc2Cl)n(C)c1Cl [Compound 21, 5-[2-(4-Carbamoyl-2-methyl-phenylamino)-5-chloro-pyrimidin-4-yl]-2-chloro-1-methyl-1H-pyrrole-3-carboxylic acid (2,6-diethyl-phenyl)-amide] | 22 nM
COc1cc(N2CCN(C)CC2)ccc1Nc1nccc(-c2cc(C(=O)Nc3c(C)cccc3Cl)cn2C)n1 [Compound 37, 5-{2-[2-Methoxy-4-(4-methyl-piperazin-1-yl)-phenylamino]-pyrimidin-4-yl}-1-methyl-1H-pyrrole-3-carboxylic acid (2-chloro-6-methyl-phenyl)-amide] | 84 nM
CCc1cccc(CC)c1NC(=O)c1cc(-c2ccnc(Nc3ccc(N(C)CCCN(C)C)cc3OC)n2)n(C)c1 [Compound 32, 5-(2-{4-[(3-Dimethylamino-propyl)-methyl-amino]-2-methoxy-phenylamino}-pyrimidin-4-yl)-1-methyl-1H-pyrrole-3-carboxylic acid (2,6-diethyl-phenyl)-amide] | 110 nM
CCc1cccc(CC)c1NC(=O)c1cc(-c2ccnc(Nc3ccc(C(=O)N(C)C)cc3C)n2)n(C)c1 [Compound 14, 5-[2-(4-Dimethylcarbamoyl-2-methyl-phenylamino)-pyrimidin-4-yl]-1-methyl-1H-pyrrole-3-carboxylic acid (2,6-diethyl-phenyl)-amide] | 41 nM
CCc1cccc(CC)c1NC(=O)c1cc(-c2nc(Nc3ccc(C(=O)N4CCC(N(C)C)CC4)cc3C)ncc2C)n(C)c1 [Compound 31, 5-{2-[4-(4-Dimethylamino-piperidine-1-carbonyl)-2-methyl-phenylamino]-5-methyl-pyrimidin-4-yl}-1-methyl-1H-pyrrole-3-carboxylic acid (2,6-diethyl-phenyl)-amide] | 67 nM
